Data published in the supplement of paper PMC12463676, “Small-molecule dissolution of stress granules by redox modulation benefits ALS models” (Nature Chemical Biology, 2025).

How the values were obtained:
lipoamide = compound: NC(=O)CCCCC1CCSS1 [lipoamide]; assay: thermal stability z-score vs DMSO; higher = more thermally stabilized by treatment; details: HeLa, lipoamide concentration 100 µM
Procedure: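 Cellular thermal proteome profiling in HeLa cells. Cells were treated with 100 µM lipoamide for 1 h, with or without 1 mM arsenate for a further 1 h, then heated to ten temperatures (37-66.3 °C), and soluble protein was quantified by TMT mass spectrometry relative to 0.1% DMSO controls. The thermal stability score (sum of log2 fold changes minus the abundance score) was transformed to a z-score; mean of n = 3 experiments.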

potassium arsenate = compound: O=[As]([O-])(O)O.[K+] [potassium arsenate]; assay: as above; details: HeLa; arsenate concentration 1 mM
Procedure: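 Cellular thermal proteome profiling in HeLa cells treated with 1 mM arsenate for 1 h (DMSO pretreatment), heated to ten temperatures (37-66.3 °C). Soluble protein was quantified by TMT mass spectrometry relative to DMSO controls; the thermal stability score was transformed to a z-score; mean of n = 3 experiments.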

[1] = arsenate co-treatment: 1 mM arsenate 1 h
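Note: each temperature applied for 3 min, abundance score taken as mean log2 fold change at the two lowest temperatures, z-score obtained by mean subtraction and division by SD.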

Chain of UniProt Q16822 (Q16822 whole entry): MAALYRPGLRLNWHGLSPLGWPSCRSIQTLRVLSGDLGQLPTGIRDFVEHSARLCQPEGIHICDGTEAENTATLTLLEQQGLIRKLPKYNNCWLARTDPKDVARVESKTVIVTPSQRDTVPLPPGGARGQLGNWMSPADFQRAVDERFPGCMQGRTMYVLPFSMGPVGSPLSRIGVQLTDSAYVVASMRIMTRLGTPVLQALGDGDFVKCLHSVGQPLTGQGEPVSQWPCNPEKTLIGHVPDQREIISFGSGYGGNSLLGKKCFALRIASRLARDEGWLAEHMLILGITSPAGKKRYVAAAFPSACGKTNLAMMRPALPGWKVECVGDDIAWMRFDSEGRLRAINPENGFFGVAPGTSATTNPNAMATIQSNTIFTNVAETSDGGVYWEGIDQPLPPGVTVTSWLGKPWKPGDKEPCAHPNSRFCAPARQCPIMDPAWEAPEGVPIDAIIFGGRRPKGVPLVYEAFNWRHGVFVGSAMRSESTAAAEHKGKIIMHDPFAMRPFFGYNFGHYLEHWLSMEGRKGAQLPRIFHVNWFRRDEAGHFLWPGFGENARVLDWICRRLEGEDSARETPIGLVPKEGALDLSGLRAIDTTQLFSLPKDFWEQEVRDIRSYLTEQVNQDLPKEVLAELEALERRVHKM
Chain of UniProt P53350 (P53350 whole entry): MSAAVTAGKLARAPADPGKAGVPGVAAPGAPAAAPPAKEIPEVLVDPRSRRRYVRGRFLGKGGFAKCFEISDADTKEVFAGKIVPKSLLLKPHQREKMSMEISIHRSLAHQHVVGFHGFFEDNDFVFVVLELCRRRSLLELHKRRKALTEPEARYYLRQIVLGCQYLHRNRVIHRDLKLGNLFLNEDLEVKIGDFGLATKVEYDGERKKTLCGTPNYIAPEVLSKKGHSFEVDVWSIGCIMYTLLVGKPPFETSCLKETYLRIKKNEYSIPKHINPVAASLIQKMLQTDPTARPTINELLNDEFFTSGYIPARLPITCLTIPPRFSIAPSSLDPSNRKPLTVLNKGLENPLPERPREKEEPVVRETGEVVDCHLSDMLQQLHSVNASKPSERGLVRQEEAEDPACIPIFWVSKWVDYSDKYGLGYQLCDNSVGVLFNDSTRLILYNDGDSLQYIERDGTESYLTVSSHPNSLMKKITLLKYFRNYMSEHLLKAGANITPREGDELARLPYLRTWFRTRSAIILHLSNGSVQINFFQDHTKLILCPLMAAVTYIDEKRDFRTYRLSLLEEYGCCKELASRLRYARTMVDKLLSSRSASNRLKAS
Chain of UniProt Q92538 (Q92538 whole entry): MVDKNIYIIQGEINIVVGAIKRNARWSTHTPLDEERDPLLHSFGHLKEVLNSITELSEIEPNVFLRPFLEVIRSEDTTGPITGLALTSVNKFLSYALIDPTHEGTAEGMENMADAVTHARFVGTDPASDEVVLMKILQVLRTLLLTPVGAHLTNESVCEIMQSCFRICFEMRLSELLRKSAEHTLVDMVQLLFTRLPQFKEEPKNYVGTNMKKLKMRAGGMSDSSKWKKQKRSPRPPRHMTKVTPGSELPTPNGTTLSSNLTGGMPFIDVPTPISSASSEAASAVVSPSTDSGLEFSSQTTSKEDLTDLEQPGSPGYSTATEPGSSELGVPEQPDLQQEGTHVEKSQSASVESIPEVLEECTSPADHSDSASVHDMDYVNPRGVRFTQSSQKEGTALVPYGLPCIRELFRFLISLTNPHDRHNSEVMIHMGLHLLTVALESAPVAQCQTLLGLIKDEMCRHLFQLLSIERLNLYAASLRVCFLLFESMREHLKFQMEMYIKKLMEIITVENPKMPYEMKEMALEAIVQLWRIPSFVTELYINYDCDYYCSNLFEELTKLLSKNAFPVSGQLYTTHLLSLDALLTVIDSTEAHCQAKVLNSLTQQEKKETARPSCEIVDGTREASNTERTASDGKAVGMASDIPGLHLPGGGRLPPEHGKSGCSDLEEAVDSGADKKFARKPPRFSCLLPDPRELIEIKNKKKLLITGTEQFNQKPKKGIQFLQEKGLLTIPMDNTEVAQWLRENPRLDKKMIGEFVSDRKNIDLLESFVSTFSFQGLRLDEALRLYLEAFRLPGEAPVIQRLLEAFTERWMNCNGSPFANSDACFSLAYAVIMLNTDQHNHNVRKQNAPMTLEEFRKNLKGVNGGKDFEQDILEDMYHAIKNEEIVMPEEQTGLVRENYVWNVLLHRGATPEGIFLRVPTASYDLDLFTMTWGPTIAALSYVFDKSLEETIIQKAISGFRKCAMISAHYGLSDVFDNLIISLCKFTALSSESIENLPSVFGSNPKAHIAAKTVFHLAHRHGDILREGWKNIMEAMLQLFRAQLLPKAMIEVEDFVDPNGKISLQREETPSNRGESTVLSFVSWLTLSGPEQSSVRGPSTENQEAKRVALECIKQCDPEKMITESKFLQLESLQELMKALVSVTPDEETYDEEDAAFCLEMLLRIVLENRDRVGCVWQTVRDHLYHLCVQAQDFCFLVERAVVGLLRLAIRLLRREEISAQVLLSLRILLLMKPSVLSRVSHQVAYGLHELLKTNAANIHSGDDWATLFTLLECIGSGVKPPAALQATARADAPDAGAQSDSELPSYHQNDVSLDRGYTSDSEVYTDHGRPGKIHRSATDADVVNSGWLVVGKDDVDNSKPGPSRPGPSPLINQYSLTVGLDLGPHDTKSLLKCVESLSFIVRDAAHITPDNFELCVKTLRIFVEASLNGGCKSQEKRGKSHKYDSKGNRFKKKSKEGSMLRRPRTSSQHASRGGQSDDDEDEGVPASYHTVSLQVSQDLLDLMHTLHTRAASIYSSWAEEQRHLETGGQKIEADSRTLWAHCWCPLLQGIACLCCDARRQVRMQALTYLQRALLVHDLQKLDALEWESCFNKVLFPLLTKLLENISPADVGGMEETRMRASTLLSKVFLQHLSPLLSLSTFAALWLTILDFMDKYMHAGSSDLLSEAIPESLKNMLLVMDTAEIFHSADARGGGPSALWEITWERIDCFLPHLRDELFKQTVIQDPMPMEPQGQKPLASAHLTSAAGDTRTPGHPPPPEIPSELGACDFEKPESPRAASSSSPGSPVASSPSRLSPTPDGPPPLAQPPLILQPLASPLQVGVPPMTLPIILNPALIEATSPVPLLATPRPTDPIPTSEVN
Chain of UniProt O14763 (O14763 whole entry): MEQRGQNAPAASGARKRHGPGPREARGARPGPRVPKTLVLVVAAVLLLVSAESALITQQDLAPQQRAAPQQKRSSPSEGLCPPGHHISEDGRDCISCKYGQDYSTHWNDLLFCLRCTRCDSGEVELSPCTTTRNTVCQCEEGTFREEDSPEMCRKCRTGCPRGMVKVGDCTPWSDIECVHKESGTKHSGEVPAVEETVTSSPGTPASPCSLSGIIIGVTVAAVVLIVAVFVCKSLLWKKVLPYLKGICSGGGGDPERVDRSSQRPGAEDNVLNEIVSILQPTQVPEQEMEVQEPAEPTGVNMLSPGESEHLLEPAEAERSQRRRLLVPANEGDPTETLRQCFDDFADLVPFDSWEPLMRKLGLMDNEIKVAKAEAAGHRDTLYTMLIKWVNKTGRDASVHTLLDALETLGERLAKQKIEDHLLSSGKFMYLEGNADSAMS
Chain of UniProt Q9H1K0 (Q9H1K0 whole entry): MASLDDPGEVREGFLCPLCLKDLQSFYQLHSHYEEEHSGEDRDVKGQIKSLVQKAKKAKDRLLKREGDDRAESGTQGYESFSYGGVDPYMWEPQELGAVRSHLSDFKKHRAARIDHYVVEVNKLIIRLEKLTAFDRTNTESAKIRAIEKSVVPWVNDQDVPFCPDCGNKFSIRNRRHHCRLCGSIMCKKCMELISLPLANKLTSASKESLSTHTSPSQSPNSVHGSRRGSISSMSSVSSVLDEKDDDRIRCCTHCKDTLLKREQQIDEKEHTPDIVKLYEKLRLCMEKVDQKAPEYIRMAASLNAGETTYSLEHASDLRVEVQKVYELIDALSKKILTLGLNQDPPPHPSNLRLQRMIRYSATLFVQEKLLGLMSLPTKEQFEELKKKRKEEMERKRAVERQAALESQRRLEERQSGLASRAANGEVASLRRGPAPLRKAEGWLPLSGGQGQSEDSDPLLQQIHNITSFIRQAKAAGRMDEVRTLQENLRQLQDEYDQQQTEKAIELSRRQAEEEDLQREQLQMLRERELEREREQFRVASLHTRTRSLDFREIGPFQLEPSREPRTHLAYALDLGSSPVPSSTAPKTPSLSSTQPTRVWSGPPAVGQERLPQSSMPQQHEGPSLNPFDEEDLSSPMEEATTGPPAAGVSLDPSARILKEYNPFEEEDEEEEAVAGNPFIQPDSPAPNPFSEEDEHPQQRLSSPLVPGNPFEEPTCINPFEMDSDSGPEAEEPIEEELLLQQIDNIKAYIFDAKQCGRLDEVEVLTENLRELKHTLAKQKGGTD
Chain of UniProt O95168 (O95168 whole entry): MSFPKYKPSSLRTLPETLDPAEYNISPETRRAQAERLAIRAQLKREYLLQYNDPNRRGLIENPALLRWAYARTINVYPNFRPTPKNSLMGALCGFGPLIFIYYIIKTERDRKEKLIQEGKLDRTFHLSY
Chain of UniProt Q96ND0 (Q96ND0 whole entry): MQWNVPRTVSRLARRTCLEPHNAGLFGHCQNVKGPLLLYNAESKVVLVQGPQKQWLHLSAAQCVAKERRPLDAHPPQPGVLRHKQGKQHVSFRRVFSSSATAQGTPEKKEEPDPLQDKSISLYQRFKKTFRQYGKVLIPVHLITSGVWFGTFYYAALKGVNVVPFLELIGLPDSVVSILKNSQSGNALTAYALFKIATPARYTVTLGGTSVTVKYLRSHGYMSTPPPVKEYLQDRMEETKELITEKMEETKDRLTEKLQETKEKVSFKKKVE
Chain of UniProt Q16563 (Q16563 whole entry): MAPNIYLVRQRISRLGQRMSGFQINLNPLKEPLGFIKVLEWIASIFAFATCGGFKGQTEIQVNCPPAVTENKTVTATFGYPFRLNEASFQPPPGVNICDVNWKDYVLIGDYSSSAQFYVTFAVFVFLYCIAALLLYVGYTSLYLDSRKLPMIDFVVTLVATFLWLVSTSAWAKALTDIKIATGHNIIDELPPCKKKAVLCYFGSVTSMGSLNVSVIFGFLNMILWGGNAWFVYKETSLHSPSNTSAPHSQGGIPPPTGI

Row | Target | thermal stability z-score (lipoamide; [1]) | thermal stability z-score (lipoamide; arsenate co-treatment: none) | thermal stability z-score (potassium arsenate)
1 | UTP6 (UniProt Q9NYH9) | 0.13 | -0.00953 | 0.272
2 | UGDH (UniProt O60701) | -0.0997 | 0.267 | 1.03
3 | PLK1 (UniProt P53350) | -0.0395 | -0.233 | -0.584
4 | ZRANB2 (UniProt O95218) | -0.755 | -0.097 | -0.286
5 | NDUFB4 (UniProt O95168) | 0.137 | 0.173 | 0.489
6 | FAM210A (UniProt Q96ND0) | -0.412 | -0.508 | -0.189
7 | CNOT4 (UniProt O95628) | -0.171 | -0.00856 | 0.494
8 | SLC1A5 (UniProt Q15758) | 0.752 | 0.31 | 0.00339
9 | GBF1 (UniProt Q92538) | -0.598 | -0.0839 | 0.452
10 | SLC2A1 (UniProt P11166) | 0.651 | 0.659 | 0.124
11 | MORC2 (UniProt Q9Y6X9) | -0.165 | -0.0529 | -0.726
12 | RAP1A (UniProt P62834) | 0.141 | -0.173 | -0.254
13 | C1QBP (UniProt Q07021) | -0.549 | 0.0636 | -1.28
14 | OSBPL10 (UniProt Q9BXB5) | -1.14 | -0.711 | -1.41
15 | GTF2H4 (UniProt Q92759) | 0.108 | 0.112 | 0.148
16 | MB21D1 (UniProt Q8N884) | 0.409 | 0.258 | 0.109
17 | KIRREL (UniProt Q96J84) | 0.0439 | -0.449 | 0.892
18 | CIAPIN1 (UniProt Q6FI81) | 0.671 | 0.397 | 0.186
19 | MRPS16 (UniProt Q9Y3D3) | -0.314 | -0.201 | 0.0354
20 | PPIL4 (UniProt Q8WUA2) | -0.441 | -0.236 | -0.913
21 | DCAF6 (UniProt Q58WW2) | -0.747 | -0.879 | -0.72
22 | NIP7 (UniProt Q9Y221) | 0.337 | -0.869 | -0.111
23 | RBSN (UniProt Q9H1K0) | 0.0643 | 0.16 | -0.113
24 | RMDN1 (UniProt Q96DB5) | 0.0143 | -0.0301 | 0.171
25 | ALDH6A1 (UniProt Q02252) | -0.315 | 0.458 | 4.94
26 | GSTM3 (UniProt P21266) | 0.731 | 0.402 | 1.48
27 | COPA (UniProt P53621) | -0.0346 | 0.0865 | 0.594
28 | SSR3 (UniProt Q9UNL2) | -0.665 | -0.443 | 0.0314

Row | Target | thermal stability z-score (lipoamide; [1]) | thermal stability z-score (lipoamide; arsenate co-treatment: none) | thermal stability z-score (potassium arsenate)
29 | EIF3E (UniProt P60228) | -0.192 | 0.126 | -0.113
30 | NSF (UniProt P46459) | -0.331 | -0.0542 | 0.232
31 | EIF1 (UniProt P41567) | -0.179 | -0.0958 | -0.193
32 | SCCPDH (UniProt Q8NBX0) | 0.163 | 0.0672 | 0.139
33 | PCK2 (UniProt Q16822) | -0.107 | -0.0889 | 0.352
34 | GOLGA1 (UniProt Q92805) | -0.956 | -0.268 | 0.92
35 | LMBRD1 (UniProt Q9NUN5) | -0.626 | -0.635 | 0.252
36 | ZBTB33 (UniProt Q86T24) | -0.0938 | -0.0683 | -0.107
37 | PRPF38B (UniProt Q5VTL8) | -0.807 | -0.366 | -0.358
38 | MRPL28 (UniProt Q13084) | -0.527 | -0.172 | -0.154
39 | ZC3H7B (UniProt Q9UGR2) | -0.082 | -0.0985 | -0.647
40 | TNFRSF10B (UniProt O14763) | -0.753 | -0.414 | 0.582
41 | ENG (UniProt P17813) | -0.721 | -0.506 | 0.478
42 | DDX24 (UniProt Q9GZR7) | 1.1 | 0.327 | -0.522
43 | MID1IP1 (UniProt Q9NPA3) | -0.135 | 0.206 | 0.151
44 | DNAJC8 (UniProt O75937) | 0.653 | 0.49 | 1.25
45 | GLYR1 (UniProt Q49A26) | 0.0933 | -0.0315 | -0.145
46 | GCNT2 (UniProt Q8N0V5) | 0.367 | -0.158 | -0.125
47 | ROBO1 (UniProt Q9Y6N7) | 0.154 | 0.0459 | -0.29
48 | CLPTM1L (UniProt Q96KA5) | -2.13 | -1.51 | 0.279
49 | ANKRD27 (UniProt Q96NW4) | -0.025 | -0.0854 | -0.276
50 | YBEY (UniProt P58557) | -0.077 | 0.169 | 0.131
51 | TRIM27 (UniProt P14373) | 0.641 | -0.0794 | -0.874
52 | EIF2AK4 (UniProt Q9P2K8) | 0.566 | 0.141 | 2.05
53 | SYPL1 (UniProt Q16563) | 0.951 | -0.0774 | 0.425
54 | IRAK1 (UniProt P51617) | -0.153 | -0.074 | -0.328
55 | SLU7 (UniProt O95391) | -0.353 | -0.364 | -0.0775
